From patent US12371748B2, “Genetic markers for predicting responsiveness to therapy with HDL-raising or HDL mimicking agent” (Hoffmann-La Roche Inc., priority 2014, dated 2025)

Test system: patients recently hospitalized for an Acute Coronary Syndrome (ACS)
Test: dal-OUTCOMES pharmacogenomic study: cardiovascular events by ADCY9 genotype (Cox proportional hazards)
Type: in vivo, human
Design: key to Responsiveness to treatment: NR = non-responsive; PR = partially responsive; R = responsive
Settings: for Hazard ratio (dal vs placebo): time to events; for HR, dal-OUTCOMES: per copy of minor allele
Method: Dal-OUTCOMES trial (NC20971) was a double blind, randomized, placebo-controlled, parallel group, multi-center, phase III study to assess the safety and efficacy of the CETP inhibitor dalcetrapib in patients recently hospitalized for an Acute Coronary Syndrome (ACS). At time of the interim analysis the study included 15871 randomized patients, distributed over two treatment arms: placebo (7933 patients) and dalcetrapib (600 mg daily; 7938 patients). […] The dal-OUTCOMES study details can be found in G. Schwartz et al., N. Engl. J. Med. 367; 22, 2012.
dal-Outcomes patients were recruited 4 to 12 weeks following hospitalization for acute coronary syndrome characterized by elevated cardiac biomarkers, with symptoms of acute myocardial ischemia, ischemic electrocardiographic abnormalities that were new or presumed to be new, or loss of viable myocardium on imaging. Patients without elevated cardiac biomarkers were eligible to participate if symptoms of acute myocardial ischemia were accompanied by electrocardiographic changes that were new or presumed to be new and by additional evidence of obstructive coronary disease. (Schwartz G G et al. Am Heart J 2009; 158:896-901 e3).
All patients were following individualized programs to target LDL cholesterol levels of 100 mg per deciliter (2.6 mmol per liter) or lower by statin if tolerated and diet. No specific statin agent was specified, and patients were not excluded based on LDL cholesterol values. Patients with serum triglyceride levels of 400 mg per deciliter (4.5 mmol per liter) or higher were excluded. (Schwartz G G et al. N Engl J Med 2012; 367:2089-99) Eligible participants to the dal-Outcomes trial entered a single-blind placebo run-in period of approximately 4 to 6 weeks to allow for patients to stabilise and for completion of planned revascularisation procedures. At the end of the run-in period, eligible patients in stable condition were randomised in a 1:1 ratio to 600 mg of dalcetrapib or placebo on top of evidence-based medical care for acute coronary syndrome. Cardiovascular events were adjudicated by an independent clinical endpoint committee. For the pharmacogenomics study, 6338 patients were recruited from April 2008 through July 2010 at 461 sites in 14 countries and provided written informed consent to participate to the genetic study of the dal-OUTCOMES trial. DNA was extracted from whole blood. Following genomic data cleanup, samples from 5749 Caucasian patients were used for the discovery genome-wide association study (GWAS).
The Illumina Infinium HumanOmni2.5Exome-8v1_A BeadChip including 2,567,845 genetic variants (Illumina, San Diego, California) was used for the discovery GWAS of 5749 Caucasian participants to the dal-OUTCOMES study. The chromosome 16 region including 5 genes upstream and downstream of the adenylate cyclase type 9 (ADCY9) gene (CHR16: 3,400,000-4,600,000) was imputed using IMPUTE2, providing 17,764 variants for analysis with an average completion rate of 99.76%. A Sequenom panel was used for the confirmation of imputed single nucleotide polymorphisms (SNPs) in the ADCY9 gene identified in dal-OUTCOMES and were tested in the dal-PLAQUE-2 study, including 20 SNPs with P values<0.05 from the discovery GWAS.
Genome-wide association study (GWAS)—Genome-wide genotyping was performed using 200 ng of genomic DNA in GLP-environment at the Beaulieu-Saucier Pharmacogenomics Centre (Montreal, Canada). The Illumina Infinium HumanOmni2.5Exome-8v1_A BeadChip (Illumina, San Diego, CA) including 2,567,845 genomic markers was used and processed according to the manufacturer's specifications. This chip includes over 200,000 exome variants identified through the Exome Chip Consortium. The remaining BeadChip content is a mix of rare and common SNPs from the 1000 Genome Project designed to be maximally informative for diverse world populations. Each BeadChip was scanned and analyzed using the Illumina iScan Reader. […]

Structure (SMILES): CCC(CC)CC1(C(=O)Nc2ccccc2SC(=O)C(C)C)CCCCC1 [dalcetrapib, thioisobutyric acid S-(2-{[1-(2-ethyl-butyl)-cyclohexanecarbonyl]-amino}-phenyl) ester]
- Responsiveness to treatment (rs8061182 CC): NR
- Hazard ratio (dal vs placebo) (rs8061182 CC): 1.52
- Responsiveness to treatment (rs8061182 CT): PR
- Hazard ratio (dal vs placebo) (rs8061182 CT): 0.99
- Responsiveness to treatment (rs8061182 TT): R
- Hazard ratio (dal vs placebo) (rs8061182 TT): 0.815
- HR, dal-OUTCOMES (rs11647778, Cox additive genetic model): 0.678
- Responsiveness to treatment (rs11647778 CC): R
- Hazard ratio (dal vs placebo) (rs11647778 CC): 0.691
- Responsiveness to treatment (rs11647778 CG): PR
- Hazard ratio (dal vs placebo) (rs11647778 CG): 0.966
- Responsiveness to treatment (rs11647778 GG): NR
- Hazard ratio (dal vs placebo) (rs11647778 GG): 1.300
- HR, dal-OUTCOMES (rs11647828, Cox additive genetic model): 0.696
- Responsiveness to treatment (rs11647828 CC): R
- Hazard ratio (dal vs placebo) (rs11647828 CC): 0.647
- Responsiveness to treatment (rs11647828 CT): PR
- Hazard ratio (dal vs placebo) (rs11647828 CT): 0.963
- Responsiveness to treatment (rs11647828 TT): NR
- Hazard ratio (dal vs placebo) (rs11647828 TT): 1.315
- HR, dal-OUTCOMES (rs12595857, Cox additive genetic model): 0.677
- Responsiveness to treatment (rs12595857 AA): NR
- Hazard ratio (dal vs placebo) (rs12595857 AA): 1.255
- Responsiveness to treatment (rs12595857 AG): PR
- Hazard ratio (dal vs placebo) (rs12595857 AG): 0.954
- Responsiveness to treatment (rs12595857 GG): R
- Hazard ratio (dal vs placebo) (rs12595857 GG): 0.719
- HR, dal-OUTCOMES (rs12599911, Cox additive genetic model): 0.674
- Responsiveness to treatment (rs12599911 GG): R
- Hazard ratio (dal vs placebo) (rs12599911 GG): 0.672
- Responsiveness to treatment (rs12599911 GT): PR
- Hazard ratio (dal vs placebo) (rs12599911 GT): 0.982
- Responsiveness to treatment (rs12599911 TT): NR
- Hazard ratio (dal vs placebo) (rs12599911 TT): 1.244
- HR, dal-OUTCOMES (rs12920508, Cox additive genetic model): 0.669
- Responsiveness to treatment (rs12920508 CC): NR
- Hazard ratio (dal vs placebo) (rs12920508 CC): 1.205
- Responsiveness to treatment (rs12920508 CG): PR
- Hazard ratio (dal vs placebo) (rs12920508 CG): 0.946
- Responsiveness to treatment (rs12920508 GG): R
- Hazard ratio (dal vs placebo) (rs12920508 GG): 0.676
- HR, dal-OUTCOMES (rs12935810, Cox additive genetic model): 1.377
- Responsiveness to treatment (rs12935810 AA): NR
- Hazard ratio (dal vs placebo) (rs12935810 AA): 1.260
- Responsiveness to treatment (rs12935810 AG): NR
- Hazard ratio (dal vs placebo) (rs12935810 AG): 1.043
- Responsiveness to treatment (rs12935810 GG): R
- Hazard ratio (dal vs placebo) (rs12935810 GG): 0.796
- HR, dal-OUTCOMES (rs13337675, Cox additive genetic model): 0.834
- Responsiveness to treatment (rs13337675 AA): NR
- Hazard ratio (dal vs placebo) (rs13337675 AA): 1.070
- Responsiveness to treatment (rs13337675 AG): PR
- Hazard ratio (dal vs placebo) (rs13337675 AG): 0.904
- Responsiveness to treatment (rs13337675 GG): PR
- Hazard ratio (dal vs placebo) (rs13337675 GG): 1.034
- HR, dal-OUTCOMES (rs17136707, Cox additive genetic model): 0.594
- Responsiveness to treatment (rs17136707 CC): R
- Hazard ratio (dal vs placebo) (rs17136707 CC): 0.552
- Responsiveness to treatment (rs17136707 CT): PR
- Hazard ratio (dal vs placebo) (rs17136707 CT): 0.835
- Responsiveness to treatment (rs17136707 TT): NR
- Hazard ratio (dal vs placebo) (rs17136707 TT): 1.058
- HR, dal-OUTCOMES (rs74702385, Cox additive genetic model): 0.599
- Responsiveness to treatment (rs74702385 CC): NR
- Hazard ratio (dal vs placebo) (rs74702385 CC): 1.053
- Responsiveness to treatment (rs74702385 CT): R
- Hazard ratio (dal vs placebo) (rs74702385 CT): 0.854
- Responsiveness to treatment (rs74702385 TT): R
- Hazard ratio (dal vs placebo) (rs74702385 TT): 0.348
- HR, dal-OUTCOMES (rs111590482, Cox additive genetic model): 0.606
- Responsiveness to treatment (rs111590482 CC): R
- Hazard ratio (dal vs placebo) (rs111590482 CC): 0.333
- Responsiveness to treatment (rs111590482 CT): R
- Hazard ratio (dal vs placebo) (rs111590482 CT): 0.856
- Responsiveness to treatment (rs111590482 TT): NR
- Hazard ratio (dal vs placebo) (rs111590482 TT): 1.054
- event rate in the primary efficacy endpoint, dalcetrapib arm compared to placebo arm (whole study population, 600 mg daily, interim analysis): no evidence of reduction of the event rate
- HR for cardiovascular events, AA compared to reference GG homozygotes at rs1967309 (within dalcetrapib arm): 0.40
- HR for cardiovascular events, AG compared to reference GG homozygotes at rs1967309 (within dalcetrapib arm): 0.68
